Results published in patent publication US20250250581A1, “HERBICIDE-RESISTANT POLYPEPTIDE AND APPLICATION THEREOF” (SHANDONG SHUNFENG BIOTECHNOLOGY CO.LTD., priority 2022, published 2025).

Experiments:
[1] = tested on: rice YX6 mutant (OE-HIR1); assay: Herbicide spraying of plants, YX6 mutant; assay type: in vivo; details: for rank order of resistance of the YX6 mutant (OE-HIR1) to different herbicides: comparison among herbicides sprayed
Source text: (§1) In this study, the base editor mediates genetic transformation through Agrobacterium, and the recipient variety was Nipponbare (NIP). After obtaining TO transgenic plants, the genotype of the target site was identified by PCR and sequencing, and the mutant individuals were transplanted to the field and T1 generation seeds were harvested. In order to verify the resistance of the mutant to herbicides, the harvested T1 generation seeds were dehulled, disinfected, and then inoculated on ½ MS medium with different HPPD herbicides. We selected the herbicide isoxaflutole, and the final concentration was set to 400 nM, while the tolerance concentration of wild-type Nipponbare rice to isoxaflutole during the seed germination stage was about 100 nM. Seed germination and seedling growth status were observed and counted 10 days after inoculation. […] To further confirm its resistance, we transplanted the green seedlings of YX6 into the greenhouse and sprayed them with 100 μM isoxaflutole one month later. The tolerance concentration of wild-type Nipponbare rice to isoxaflutole during the seedling stage was about 40 μM.
(§2) To further confirm the relationship between gene LOC_Os02g09720 and the herbicide isoxaflutole, we designed two different sgRNA targets in the coding region of gene LOC_Os02g09720 and knocked out the gene using CRISPR/Cas9 in the wild-type Nipponbare rice and YX6 resistant rice backgrounds. After obtaining TO transgenic plants, the two target regions were sequenced, and homozygous knockout plants were selected and sprayed with herbicides together with wild-type plants and YX6 resistant plants. The concentration of isoxaflutole was set to 40 μM. The phenotype was observed two weeks later. […] We named this gene HIR1 (HPPD INHIBITOR RESISTANCE 1), and its encoded protein is HIR1 protein. The amino acid sequence is shown in SEQ ID No.1. The genotype of the wild-type Nipponbare plant is HIR1, and the knockout plant is hir1.
(§3) In order to further determine the resistance strength of rice YX6 mutant (OE-HIR1), we set up three high concentration gradients of isoxaflutole to spray it (200 μM, 400 μM, 800 µM), with wild-type Nipponbare plants (HIR1) and wild-type Nipponbare HIR1 gene knockout plants (hir1) as controls. […] The tolerance range of rice YX6 mutant (OE-HIR1) to isoxaflutole may be higher, even reaching 1200-1500 μM, while the tolerance concentration of wild-type Nipponbare plants to isoxaflutole was about 40 μM, and its resistance is estimated to be increased by 30 times.
(§4) HPPD herbicides mainly include triketones, pyrazolones, isoxazolones, diketonitriles, and benzophenones. In order to determine whether the rice YX6 mutant (OE-HIR1) is resistant to other HPPD herbicides, we selected the herbicides: mesotrione, tembotrione, an unlisted quinotrione-methyl analog (Y13287), topramezone, and pyrasulfotole, and sprayed them with wild-type Nipponbare rice as the control.

[2] = tested on: wild-type Nipponbare plants (HIR1); assay: Herbicide spraying of plants, wild-type Nipponbare; assay type: in vivo, rice
Source text: as §1, §2, §3, §4

[3] = tested on: transgenic plants (ZmHIR1) in rice variety Xiushui 134; assay: Herbicide spraying of T0 transgenic seedlings overexpressing ZmHIR1; assay type: in vivo; details: 50 mg/L (139 μM) spray
Procedure: (§5) Verifying the herbicide resistance of the above two genes (ZmHIR1 and SqHIR1): cloning these two genes, respectively, and overexpressing them in the rice variety Xiushui 134. The TO generation transgenic seedlings were sprayed with 50 mg/L (139 μM) herbicide isoxaflutole for resistance identification, and the results are shown in FIGS. 10-11.

[4] = tested on: wild-type (WT) rice plants, variety Xiushui 134; assay: Herbicide spraying for resistance identification, wild-type Xiushui 134; assay type: in vivo; details: 50 mg/L (139 μM) spray
Procedure: as §5

[5] = tested on: wild-type Nipponbare HIR1 knockout plant hir1 (NIP); assay: Herbicide spraying of plants, HIR1 knockout in wild-type background; assay type: in vivo, rice; details: 40 μM spray, two weeks later, LOC_Os02g09720 knockout in wild-type background
Source text: as §2

[6] = tested on: resistant plant YX6 HIR1 knockout plant hir1 (YX6); assay: Herbicide spraying of plants, HIR1 knockout in YX6 background; assay type: in vivo, rice; details: 40 μM spray, two weeks later, LOC_Os02g09720 knockout in YX6 background
Source text: as §2

[7] = tested on: transgenic plants (SqHIR1) in rice variety Xiushui 134; assay: Herbicide spraying of T0 transgenic seedlings overexpressing SqHIR1; assay type: in vivo; details: 50 mg/L (139 μM) spray
Procedure: as §5

[8] = tested on: transgenic plant numbered YX6 (T1 generation seeds); assay: Seed germination on ½ MS medium with isoxaflutole, YX6 T1 seeds; assay type: in vivo, rice; details: 400 nM in ½ MS medium, 10 days after inoculation
Source text: as §1

[9] = tested on: wild-type Nipponbare rice; assay: Seed germination on ½ MS medium with isoxaflutole, wild-type Nipponbare; assay type: in vivo
Source text: as §1

[10] = 400 μM spray, YX6 mutant (OE-HIR1)

Cc1c(C(=O)c2cnn(C)c2O)ccc(S(C)(=O)=O)c1C1=NOCC1 [topramezone]
phenotype after spraying [1, 10]: had no phytotoxicity and could grow normally without bleaching
rank order of resistance of the YX6 mutant (OE-HIR1) to different herbicides [1]: sulfone pyrazone>topramezone≈tembotrione>mesotrione≈quinotrione-methyl analog
phenotype after spraying ([2]; 400 μM spray, wild-type plants): had all bleached and suffered certain phytotoxicity

Cc1nn(C)c(O)c1C(=O)c1ccc(C(F)(F)F)cc1S(C)(=O)=O [pyrasulfotole]
phenotype after spraying [1, 10]: had no phytotoxicity and could grow normally without bleaching
rank order of resistance of the YX6 mutant (OE-HIR1) to different herbicides [1]: sulfone pyrazone>topramezone≈tembotrione>mesotrione≈quinotrione-methyl analog
phenotype after spraying ([2]; 400 μM spray, wild-type plants): had all bleached and suffered certain phytotoxicity

CS(=O)(=O)c1ccc(C(=O)C2C(=O)CCCC2=O)c(Cl)c1COCC(F)(F)F [tembotrione]
phenotype after spraying [1, 10]: had no phytotoxicity and could grow normally without bleaching
rank order of resistance of the YX6 mutant (OE-HIR1) to different herbicides [1]: sulfone pyrazone>topramezone≈tembotrione>mesotrione≈quinotrione-methyl analog
phenotype after spraying ([2]; 400 μM spray, wild-type plants): had all bleached and suffered certain phytotoxicity

CS(=O)(=O)c1ccc(C(=O)C2C(=O)CCCC2=O)c([N+](=O)[O-])c1 [mesotrione]
phenotype after spraying [1, 10]: had no phytotoxicity and could grow normally without bleaching
rank order of resistance of the YX6 mutant (OE-HIR1) to different herbicides [1]: sulfone pyrazone>topramezone≈tembotrione>mesotrione≈quinotrione-methyl analog
phenotype after spraying ([2]; 400 μM spray, wild-type plants): had all bleached and suffered certain phytotoxicity

CS(=O)(=O)c1cc(C(F)(F)F)ccc1C(=O)c1cnoc1C1CC1 [isoxaflutole]
phenotype after spraying [3]: basically remain green, with normal plant height and good growth status
phenotype after spraying [4]: become dwarfed, yellow, and dry
phenotype after spraying [5]: bleached, withered, and died gradually
phenotype after spraying ([1]; 40 μM spray, two weeks later, YX6 plants): not affected and grew normally
phenotype after spraying ([1]; 100 μM spray, after two weeks, YX6): not affected at all
phenotype after spraying ([1]; 800 μM spray, YX6 mutant (OE-HIR1)): could still grow normally
resistance increase versus wild-type Nipponbare ([1]; YX6 mutant (OE-HIR1) vs wild type tolerance about 40 μM, estimated): ~30 times
tolerance range ([1]; YX6 mutant (OE-HIR1), 'may be higher, even reaching'): 1200 to 1500 µM
phenotype after spraying [6]: bleached, withered, and died gradually
phenotype after spraying [7]: basically remained green, with normal plant height and good growth status
phenotype after spraying ([2]; 40 μM spray, two weeks later, wild-type plants): bleaching and wilting, but still survived
phenotype after spraying ([2]; 100 μM spray, after two weeks, wild-type Nipponbare): completely bleached and withered
tolerance concentration during the seedling stage ([2]; wild-type Nipponbare, spraying): about 40 μM
seed germination and seedling growth status [8]: seedlings remained green normally
seed germination and seedling growth status ([9]; 400 nM in ½ MS medium, 10 days after inoculation, wild-type Nipponbare): obvious bleaching symptoms of phytotoxicity
tolerance concentration during the seed germination stage ([9]; wild-type Nipponbare rice, seed germination stage): about 100 nM
